In patent US20190367516A1 (Bayer Pharma Aktiengesellschaft, priority 2015, published 2019):
pEC50: −log10 of the molar value. Like-named read-outs stand apart in the source and are kept apart here.

Molecular target: T1, human M2 receptor (Homo sapiens, UniProt P08172)
T1 sequence (P08172 1-466): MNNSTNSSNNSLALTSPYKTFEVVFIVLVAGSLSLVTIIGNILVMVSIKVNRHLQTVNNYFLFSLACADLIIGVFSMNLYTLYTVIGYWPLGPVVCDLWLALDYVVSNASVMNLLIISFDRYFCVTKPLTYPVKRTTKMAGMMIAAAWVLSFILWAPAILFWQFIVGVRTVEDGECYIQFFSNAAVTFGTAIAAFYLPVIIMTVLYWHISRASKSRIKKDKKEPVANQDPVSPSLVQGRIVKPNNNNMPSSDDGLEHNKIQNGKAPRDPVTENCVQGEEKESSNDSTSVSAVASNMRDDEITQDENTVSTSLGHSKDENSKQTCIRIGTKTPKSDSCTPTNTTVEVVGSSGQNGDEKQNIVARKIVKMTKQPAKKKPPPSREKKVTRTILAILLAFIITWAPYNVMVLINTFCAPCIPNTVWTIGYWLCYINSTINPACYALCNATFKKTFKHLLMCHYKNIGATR
Settings: for Efficiency: boosting of the acetylcholine effect at EC20 acetylcholine concentration

[1] = Receptor activity EC50, allosteric potency at EC20 acetylcholine, M2-GIRK1/4 reporter cells, in some cases mean of two or more determinations
[2] = Receptor activity EC50, M2-GIRK1/4 activation test, acetylcholine at EC20, allosteric potency, in some cases mean values from two or more determinations
[3] = read-out: Efficiency, boosting of the acetylcholine effect at EC20 acetylcholine concentration, M2-GIRK1/4 reporter cells

Question: Which results are given for `CC[C@H](NC(=O)c1cn(-c2c(F)cc(F)cc2Cl)c2nc(N3CCC(C)C3=O)ccc2c1=O)C(F)(F)F` (single isomer, unassigned) [Example 423]?
Answer: pEC50 [1]: 5.50; Efficiency (M2-GIRK1/4 reporter cells): 53.5%

Question: How did the pEC50 [2] turn out when `CN(C)c1ccc2c(=O)c(C(=O)Nc3c(Cl)cccc3Cl)cn(-c3ccc(F)cc3F)c2n1` [Example 55, N-(2,6-Dichlorophenyl)-1-(2,4-difluorophenyl)-7-(dimethylamino)-4-oxo-1,4-dihydro-1,8-naphthyridine-3-carboxamide] was run?
Answer: The pEC50 was 7.44.

Question: How did the pEC50 [2] turn out when `CN(c1ccc2c(=O)c(C(=O)NC34CC5CC(CC(C5)C3)C4)cn(-c3ccc(F)cc3F)c2n1)S(C)(=O)=O` [Example 169] was run?
Answer: Its pEC50 is 7.00.

Question: With `CC(NC(=O)c1cn(-c2c(F)cc(F)cc2F)c2nc(N3C[C@@H](O)[C@H](O)C3)ccc2c1=O)(C1CC1)C(F)(F)F` (mixture of isomers) [Example 441, N-[2-Cyclopropyl-1,1,1-trifluoropropan-2-yl]-7-[(3R,4R)-3,4-dihydroxypyrrolidin-1-yl]-4-oxo-1-(2,4,6-trifluorophenyl)-1,4-dihydro-1,8-naphthyridine-3-carboxamide] as the compound, how does the pEC50 [1] read?
Answer: Its pEC50 is 7.82.

Question: What about the Emax [3] of the same compound?
Answer: Its Emax is 100%.

Question: `O=C(N[C@@H](C1CC1)C(F)(F)F)c1cn(-c2c(F)cc(F)cc2F)c2nc(N3CC(O)C3)ccc2c1=O` [Example 662, N-[(1S)-1-Cyclopropyl-2,2,2-trifluoroethyl]-7-(3-hydroxyazetidin-1-yl)-4-oxo-1-(2,4,6-trifluorophenyl)-1,4-dihydro-1,8-naphthyridine-3-carboxamide] was tested. Which pEC50 [1] did it give?
Answer: Its pEC50 is 7.42.

Question: What about the Emax [3] of the same compound?
Answer: The Emax was 100%.

Question: How did the pEC50 [2] turn out when `O=C(NC12CC3CC(CC(C3)C1)C2)c1cn(-c2ccc(F)cc2F)c2nc(N3CCCCC3=O)ccc2c1=O` [Example 165, 1-(2,4-Difluorophenyl)-4-oxo-7-(2-oxopiperidin-1-yl)-N-(tricyclo[3.3.1.1^3,7]dec-1-yl)-1,4-dihydro-1,8-naphthyridine-3-carboxamide] was run?
Answer: Its pEC50 is 7.96.

Question: How did the pEC50 [1] turn out when `O=C(NC(CC(F)(F)F)C(F)(F)F)c1cn(-c2c(F)cc(F)cc2F)c2nc(N3CCNC3=O)ccc2c1=O` (racemic) [Example 587, N-[1,1,1,4,4,4-Hexafluorobutan-2-yl]-4-oxo-7-(2-oxoimidazolidin-1-yl)-1-(2,4,6-trifluorophenyl)-1,4-dihydro-1,8-naphthyridine-3-carboxamide] was run?
Answer: The pEC50 was 7.85.

Question: What about the Efficiency (M2-GIRK1/4 reporter cells) of the same compound?
Answer: The Efficiency was 93.5%.

Question: `CC[C@@H](NC(=O)c1cn(-c2ccc(F)cc2F)c2nc(N3CC(C)CC3=O)ccc2c1=O)C(F)(F)F` (single isomer, unassigned) [Example 303] was tested. Which pEC50 [2] did it give?
Answer: The pEC50 was 7.22.

Question: With `CC(NC(=O)c1cn(-c2c(F)cc(F)cc2F)c2nc(N3C[C@@H](O)[C@H](O)C3)ccc2c1=O)C(F)(F)C(F)(F)F` (mixture of isomers) [Example 549, 7-[(3R,4R)-3,4-Dihydroxypyrrolidin-1-yl]-4-oxo-N-[3,3,4,4,4-pentafluorobutan-2-yl]-1-(2,4,6-trifluorophenyl)-1,4-dihydro-1,8-naphthyridine-3-carboxamide] as the compound, how does the Emax (read-out: Efficiency) read?
Answer: The Emax was 100%.

Question: How did the pEC50 [2] turn out when `CN(C)c1ccc2c(=O)c(C(=O)NC(C(F)(F)F)C(F)(F)F)cn(-c3ccc(F)cc3F)c2n1` [Example 149, 1-(2,4-Difluorophenyl)-7-(dimethylamino)-N-(1,1,1,3,3,3-hexafluoropropan-2-yl)-4-oxo-1,4-dihydro-1,8-naphthyridine-3-carboxamide] was run?
Answer: The pEC50 was 7.07.

Question: With `CCCC(NC(=O)c1cn(-c2ccc(F)cc2F)c2nc(N(C)C)ccc2c1=O)C(F)(F)F` (racemic) [Example 144, rac-1-(2,4-Difluorophenyl)-7-(dimethylamino)-4-oxo-N-(1,1,1-trifluoropentan-2-yl)-1,4-dihydro-1,8-naphthyridine-3-carboxamide] as the compound, how does the pEC50 [2] read?
Answer: The pEC50 was 7.49.

Question: With `CCC(NC(=O)c1cn(-c2c(F)cc(F)cc2F)c2nc(N3C[C@@H](O)CC3=O)ccc2c1=O)C(F)(F)C(F)(F)F` (mixture of isomers) [Example 519, 7-[(4S)-4-Hydroxy-2-oxopyrrolidin-1-yl]-4-oxo-N-[1,1,1,2,2-pentafluoropentan-3-yl]-1-(2,4,6-trifluorophenyl)-1,4-dihydro-1,8-naphthyridine-3-carboxamide] as the compound, how does the pEC50 [1] read?
Answer: Its pEC50 is 8.52.

Question: What about the Emax [3] of the same compound?
Answer: The Emax was 96.7%.

Question: How did the pEC50 [2] turn out when `CC(NC(=O)c1cn(-c2ccc(F)cc2F)c2nc(N(C)CCF)ccc2c1=O)C(F)(F)F` (racemic) [Example 105, rac-1-(2,4-Difluorophenyl)-7-[(2-fluoroethyl)(methyl)amino]-4-oxo-N-[1,1,1-trifluoropropan-2-yl]-1,4-dihydro-1,8-naphthyridine-3-carboxamide] was run?
Answer: Its pEC50 is 6.84.

Question: `CN(C)c1ccc2c(=O)c(C(=O)NC34CCC(CC3)CC4)cn(-c3ccc(F)cc3Cl)c2n1` [Example 152, N-(Bicyclo[2.2.2]oct-1-yl)-1-(2-chloro-4-fluorophenyl)-7-(dimethylamino)-4-oxo-1,4-dihydro-1,8-naphthyridine-3-carboxamide] was tested. Which pEC50 [2] did it give?
Answer: Its pEC50 is 8.00.

Question: How did the pEC50 [2] turn out when `O=C(NC1(C(F)(F)F)CCOCC1)c1cn(-c2ccc(F)cc2F)c2nc(N3C[C@@H](O)CC3=O)ccc2c1=O` [Example 237, 1-(2,4-Difluorophenyl)-7-[(4S)-4-hydroxy-2-oxopyrrolidin-1-yl]-4-oxo-N-[4-(trifluoromethyl)tetrahydro-2H-pyran-4-yl]-1,4-dihydro-1,8-naphthyridine-3-carboxamide] was run?
Answer: The pEC50 was 6.12.

Question: With `O=C(NC(c1ccccc1Cl)C(F)(F)F)c1cn(-c2ccc(F)cc2F)c2nc(N3CC[C@H](O)C3=O)ccc2c1=O` (stereo partly drawn) [Example 298, N-[1-(2-Chlorophenyl)-2,2,2-trifluoroethyl]-1-(2,4-difluorophenyl)-7-[(3S)-3-hydroxy-2-oxopyrrolidin-1-yl]-4-oxo-1,4-dihydro-1,8-naphthyridine-3-carboxamide] as the compound, how does the pEC50 [2] read?
Answer: The pEC50 was 7.13.

Question: `O=C(NC(CC(F)(F)F)C1CC1)c1cn(-c2c(F)cc(F)cc2F)c2nc(N3C[C@@H](O)CC3=O)ccc2c1=O` (mixture of isomers) [Example 512, N-[1-Cyclopropyl-3,3,3-trifluoropropyl]-7-[(4S)-4-hydroxy-2-oxopyrrolidin-1-yl]-4-oxo-1-(2,4,6-trifluorophenyl)-1,4-dihydro-1,8-naphthyridine-3-carboxamide] was tested. Which pEC50 [1] did it give?
Answer: Its pEC50 is 8.00.

Question: What about the Emax [3] of the same compound?
Answer: Its Emax is 100%.

Question: How did the pEC50 [1] turn out when `O=C(NC(c1ccccc1Cl)C(F)(F)F)c1cn(-c2c(F)cc(F)cc2F)c2nc(N3C[C@@H](O)CC3=O)ccc2c1=O` (mixture of isomers) [Example 532, N-[1-(2-Chlorophenyl)-2,2,2-trifluoroethyl]-7-[(4S)-4-hydroxy-2-oxopyrrolidin-1-yl]-4-oxo-1-(2,4,6-trifluorophenyl)-1,4-dihydro-1,8-naphthyridine-3-carboxamide] was run?
Answer: Its pEC50 is 7.74.

Question: And the Emax [3]?
Answer: Its Emax is 92%.

Question: Which results are given for `C[C@H](NC(=O)c1cn(-c2c(F)cc(F)cc2Cl)c2nc(N3CCNC3=O)ccc2c1=O)C(F)(F)F` [Example 419, 1-(2-Chloro-4,6-difluorophenyl)-4-oxo-7-(2-oxoimidazolidin-1-yl)-N-[(2S)-1-1,1,1-trifluoropropan-2-yl]-1,4-dihydro-1,8-naphthyridine-3-carboxamide]?
Answer: pEC50 [1]: 7.34; Emax [3]: 91.5%

Question: With `CN(C)c1ccc2c(=O)c(C(=O)Nc3c(F)cccc3F)cn(-c3ccc(F)cc3F)c2n1` [Example 52, 1-(2,4-Difluorophenyl)-N-(2,6-difluorophenyl)-7-(dimethylamino)-4-oxo-1,4-dihydro-1,8-naphthyridine-3-carboxamide] as the compound, how does the pEC50 [2] read?
Answer: Its pEC50 is 6.98.

Question: With `CN(C)c1ccc2c(=O)c(C(=O)NC(C)(C)C)cn(-c3ccc(F)cc3Cl)c2n1` [Example 155, N-tert-Butyl-1-(2-chloro-4-fluorophenyl)-7-(dimethylamino)-4-oxo-1,4-dihydro-1,8-naphthyridine-3-carboxamide] as the compound, how does the pEC50 [2] read?
Answer: The pEC50 was 6.76.

Question: What does the source list for `C[C@@H](NC(=O)c1cn(-c2c(F)cc(F)cc2F)c2nc(N3C[C@@H](O)[C@H](O)C3)ccc2c1=O)C1CC1` [Example 470, N-[(1R)-1-Cyclopropylethyl]-7-[(3R,4R)-3,4-dihydroxypyrrolidin-1-yl]-4-oxo-1-(2,4,6-trifluorophenyl)-1,4-dihydro-1,8-naphthyridine-3-carboxamide]?
Answer: pEC50 [1]: 6.98; Emax [3]: 98.5%

Question: `CN(C)c1ccc2c(=O)c(C(=O)NC(C3CC3)C(F)(F)F)cn(-c3ccc(F)cc3F)c2n1` (racemic) [Example 148, rac-N-(1-Cyclopropyl-2,2,2-trifluoroethyl)-1-(2,4-difluorophenyl)-7-(dimethylamino)-4-oxo-1,4-dihydro-1,8-naphthyridine-3-carboxamide] was tested. Which pEC50 [2] did it give?
Answer: The pEC50 was 7.39.

Question: With `O=C(NC(c1c(F)cccc1F)C(F)(F)F)c1cn(-c2ccc(F)cc2F)c2nc(N3CCC(O)CC3=O)ccc2c1=O` (single isomer, unassigned) [Example 254, 1-(2,4-Difluorophenyl)-N-[1-(2,6-difluorophenyl)-2,2,2-trifluoroethyl]-7-[4-hydroxy-2-oxopiperidin-1-yl]-4-oxo-1,4-dihydro-1,8-naphthyridine-3-carboxamide] as the compound, how does the pEC50 [2] read?
Answer: The pEC50 was 6.47.

Question: How did the pEC50 [1] turn out when `O=C(NC(CC(F)(F)F)C(F)(F)F)c1cn(-c2c(F)cc(F)cc2F)c2nc(N3C[C@@H](O)[C@H](O)C3)ccc2c1=O` (stereo partly drawn) [Example 545, 7-[(3R,4R)-3,4-Dihydroxypyrrolidin-1-yl]-N-[1,1,1,4,4,4-hexafluorobutan-2-yl]-4-oxo-1-(2,4,6-trifluorophenyl)-1,4-dihydro-1,8-naphthyridine-3-carboxamide] was run?
Answer: Its pEC50 is 8.10.

Question: And the Emax [3]?
Answer: Its Emax is 99%.
